Results reported in patent EP0091328B1, “Trans-4-aminobenz(c,d)indol-5-ol derivatives, their salts, their preparation, their use as medicaments and compositions containing them” (priority 1982, dated 1983).
Where a name gives a salt, the structure may show the parent alone.

How the values were obtained:
souris = assay: Acute toxicity, lethal dose DL0 after oral administration; format: in vivo; settings: mouse, maximal dose causing no mortality in 8 days
From the text: 4) Etude de la toxicité aiguë
On a évalué les doses létales DLo des différents composés testés après administration par voie orale chez la souris.
On appelle DLo la dose maximale ne provoquant aucune mortalité en 8 jours.

[1] = tested on: rats mâles de souche WISTAR; assay: Hypotensive activity in anaesthetised rats (carotid arterial pressure, intravenous administration); format: in vivo; settings: anaesthetised Wistar rat, versus initial control pressure
Method: 1) Détermination de l'activité hypotensive
L'activité hypotensive a été étudiée sur des rats mâles de souche WISTAR pesant 300 g environ et anesthésiés au nembutal (50 mg/kg par voie intraveineuse).
Le produit testé a été administré par voie intraveineuse dans la veine jugulaire.
La pression artérielle càrotidienne a été mesurée avant et après administration du produit testé.
Le tableau ci-après indique les variations exprimées en pourcentage de la pression artérielle après- administration du produit testé par rapport à la pression artérielle témoin initiale.

Compound | DL0 (souris) [mg/kg] | Variation % de la pression artérielle 30 minutes après l'administration ([1]; dose 0,1 mg/kg) [%] | Variation % de la pression artérielle 30 minutes après l'administration ([1]; dose 1 mg/kg) [%]
N[C@@H]1CC2CNc3cccc(c32)[C@H]1O (mixture of isomers) [Exemple 1, dichlorhydratede trans 4RS 4-amino 1,2,2a.3,4,5-hexahydro benz(c,d) indol-5-0l] | >400 |  | 
CN[C@@H]1CC2CNc3cccc(c32)[C@H]1O (mixture of isomers) [Exemple 2, Fumarate neutrede trans 4RS 4-(méthylamino) 1,2,2a,3,4,5-hexahydro benz(c,d) indol-5-0l] | >800 |  | 
CCN[C@@H]1CC2CNc3cccc(c32)[C@H]1O (mixture of isomers) [Exemple 3, Fumarate neutrede trans 4RS 4-(éthylamino) 1,2,2a,3,4,5-hexahydro benz(c,d) indol-5-ol] | >400 |  | 
CN[C@@H]1Cc2c[nH]c3cccc(c23)[C@H]1O (racemic) [Exemple 7, Chlorhydratede trans 4RS 4-(méthylamino) 1,3,4,5-tétrahydro benz(c,d) indol-5-0l] | >400 |  | 
CCN[C@@H]1Cc2c[nH]c3cccc(c23)[C@H]1O (racemic) [Exemple 8, Chlorhydratede trans 4RS 4-(éthylamino) 1,3,4,5-tétrahydro benz(c,d) indol-5-0l] | 80 | -13 | 
CCCN[C@@H]1Cc2c[nH]c3cccc(c23)[C@H]1O (racemic) [Exemple 9, Chlorhydratede trans 4RS 4-(propylamino) 1,3,4,5-tétrahydro benz(c,d) indol-5-0l] | 60 |  | -30
CC(C)N[C@@H]1Cc2c[nH]c3cccc(c23)[C@H]1O (racemic) [Exemple 10, Chlorhydratede trans 4RS 4-(isopropylamino) 1,3,4,5-tétrahydro benz(c,d) indol-5-0l] | 100 |  | -24
trans 4RS 4-(isopropylamino) 1,,2a,3,4,5-hexahydrobenz(c,d) indol-5-ol [Exemple 5] | 200 |  | 
trans 4RS 4-(propylamino) 1,2,2a,3,4,5-hexahydrobenz(c,d) indol-5--ol [Exemple 4] | 200 |  | 
